Reference: the supplement of paper PMC10307832

How the values were obtained:
Test in all cases: relative viability (nuclei count vs DMSO), 5 days (fraction); higher = more cells survive
KN-93 + Crizotinib = compound: CN(C/C=C/C1=CC=C(C=C1)Cl)CC2=CC=CC=C2N(CCO)S(=O)(=O)C3=CC=C(C=C3)OC [KN-93] + C[C@@H](Oc1cc(-c2cnn(C3CCNCC3)c2)cnc1N)c1c(Cl)ccc(F)c1Cl [Crizotinib] (partner 1 µM)
Procedure, shortened: (§1)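 Relative viability was taken as the ratio of nuclei in treated wells to nuclei in vehicle wells. Lung cancer cell lines in 1536-well plates received compounds by pin tool one day after seeding, either one drug alone or a fixed anchor-drug dose plus five library-drug doses (not always all listed) in √10 steps. Nuclei were counted on 4× images after 5 days of treatment, and values are medians of duplicate plates.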

KN-93 + Pictilisib = compound: CN(C/C=C/C1=CC=C(C=C1)Cl)CC2=CC=CC=C2N(CCO)S(=O)(=O)C3=CC=C(C=C3)OC [KN-93] + CS(=O)(=O)N1CCN(Cc2cc3nc(-c4cccc5[nH]ncc45)nc(N4CCOCC4)c3s2)CC1 [Pictilisib] (partner 1 µM)
Procedure, shortened: as §1

KN-93 + Lapatinib = compound: CN(C/C=C/C1=CC=C(C=C1)Cl)CC2=CC=CC=C2N(CCO)S(=O)(=O)C3=CC=C(C=C3)OC [KN-93] + CS(=O)(=O)CCNCc1ccc(-c2ccc3ncnc(Nc4ccc(OCc5cccc(F)c5)c(Cl)c4)c3c2)o1 [Lapatinib] (partner 2 µM)
Procedure, shortened: as §1

KN-93 + Phenformin = compound: CN(C/C=C/C1=CC=C(C=C1)Cl)CC2=CC=CC=C2N(CCO)S(=O)(=O)C3=CC=C(C=C3)OC [KN-93] + N=C(N)NC(=N)NCCc1ccccc1 [Phenformin] (partner 250 µM)
Procedure, shortened: as §1

KN-93 + Navitoclax = compound: CN(C/C=C/C1=CC=C(C=C1)Cl)CC2=CC=CC=C2N(CCO)S(=O)(=O)C3=CC=C(C=C3)OC [KN-93] + CC1(C)CCC(c2ccc(Cl)cc2)=C(CN2CCN(c3ccc(C(=O)NS(=O)(=O)c4ccc(N[C@H](CCN5CCOCC5)CSc5ccccc5)c(S(=O)(=O)C(F)(F)F)c4)cc3)CC2)C1 [Navitoclax] (partner 0.5 µM)
Procedure, shortened: as §1

KN-93 + Foretinib = compound: CN(C/C=C/C1=CC=C(C=C1)Cl)CC2=CC=CC=C2N(CCO)S(=O)(=O)C3=CC=C(C=C3)OC [KN-93] + COc1cc2c(Oc3ccc(NC(=O)C4(C(=O)Nc5ccc(F)cc5)CC4)cc3F)ccnc2cc1OCCCN1CCOCC1 [Foretinib] (partner 0.25 µM)
Procedure, shortened: as §1

KN-93 + Alpelisib = compound: CN(C/C=C/C1=CC=C(C=C1)Cl)CC2=CC=CC=C2N(CCO)S(=O)(=O)C3=CC=C(C=C3)OC [KN-93] + Cc1nc(NC(=O)N2CCC[C@H]2C(N)=O)sc1-c1ccnc(C(C)(C)C(F)(F)F)c1 [Alpelisib] (partner 2 µM)
Procedure, shortened: as §1

KN-93 + Linsitinib = compound: CN(C/C=C/C1=CC=C(C=C1)Cl)CC2=CC=CC=C2N(CCO)S(=O)(=O)C3=CC=C(C=C3)OC [KN-93] + C[C@]1(O)C[C@@H](c2nc(-c3ccc4ccc(-c5ccccc5)nc4c3)c3c(N)nccn32)C1 [Linsitinib] (partner 1 µM)
Procedure, shortened: as §1

KN-93 + Olaparib = compound: CN(C/C=C/C1=CC=C(C=C1)Cl)CC2=CC=CC=C2N(CCO)S(=O)(=O)C3=CC=C(C=C3)OC [KN-93] + O=C(c1cc(Cc2n[nH]c(=O)c3ccccc23)ccc1F)N1CCN(C(=O)C2CC2)CC1 [Olaparib] (partner 8 µM)
Procedure, shortened: as §1

KN-93 + Decitabine = compound: CN(C/C=C/C1=CC=C(C=C1)Cl)CC2=CC=CC=C2N(CCO)S(=O)(=O)C3=CC=C(C=C3)OC [KN-93] + Nc1ncn([C@H]2C[C@H](O)[C@@H](CO)O2)c(=O)n1 [Decitabine] (partner 2 µM)
Procedure, shortened: as §1

KN-93 = compound: CN(C/C=C/C1=CC=C(C=C1)Cl)CC2=CC=CC=C2N(CCO)S(=O)(=O)C3=CC=C(C=C3)OC [KN-93]
Procedure, shortened: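 For viability, nuclei in each treated well were divided by nuclei in vehicle wells and the median across plates was taken. Lung cancer cell lines in 1536-well plates were pinned with five library-drug doses (not always all listed) spaced by √10, cultured 5 days without medium change, and imaged at 4× after Hoechst staining, with plates passing only at control CV below 25% and at least one doubling.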

KN-93 + Bortezomib = compound: CN(C/C=C/C1=CC=C(C=C1)Cl)CC2=CC=CC=C2N(CCO)S(=O)(=O)C3=CC=C(C=C3)OC [KN-93] + CC(C)C[C@H](NC(=O)[C@H](Cc1ccccc1)NC(=O)c1cnccn1)B(O)O [Bortezomib] (partner 0.002 µM)
Procedure, shortened: as §1

In the case of A549, the relative viability (KN-93 + Crizotinib; first compound 0.08 µM) is reported as 0.847, the relative viability (KN-93 + Crizotinib; first compound 0.253 µM) is reported as 1.05 and the relative viability (KN-93 + Crizotinib; first compound 2.53 µM) is reported as 0.944. The relative viability (KN-93 + Crizotinib; first compound 8 µM) was 0.28, the relative viability (KN-93 + Pictilisib; first compound 0.253 µM) was 0.609 and the relative viability (KN-93 + Pictilisib; first compound 2.53 µM) was 1. The relative viability (KN-93 + Pictilisib; first compound 8 µM) was 0.225, the relative viability (KN-93 + Lapatinib; first compound 0.08 µM) was 0.863 and the relative viability (KN-93 + Lapatinib; first compound 0.253 µM) was 0.937. For the same cell line, the relative viability (KN-93 + Lapatinib; first compound 2.53 µM) was 1.01, the relative viability (KN-93 + Lapatinib; first compound 8 µM) was 0.385 and the relative viability (KN-93 + Phenformin; first compound 0.08 µM) was 0.183. The relative viability (KN-93 + Phenformin; first compound 0.253 µM) was 0.347, the relative viability (KN-93 + Phenformin; first compound 2.53 µM) was 0.922 and the relative viability (KN-93 + Phenformin; first compound 8 µM) was 0.132. The relative viability (KN-93 + Navitoclax; first compound 0.08 µM) was 1.06, the relative viability (KN-93 + Navitoclax; first compound 0.253 µM) was 1.33 and the relative viability (KN-93 + Navitoclax; first compound 2.53 µM) was 1.44. For the same cell line, the relative viability (KN-93 + Navitoclax; first compound 8 µM) was 0.513, the relative viability (KN-93 + Foretinib; first compound 0.08 µM) was 0.911 and the relative viability (KN-93 + Foretinib; first compound 0.253 µM) was 1.14. For the same cell line, the relative viability (KN-93 + Foretinib; first compound 2.53 µM) was 0.995, the relative viability (KN-93 + Foretinib; first compound 8 µM) was 0.585 and the relative viability (KN-93 + Alpelisib; first compound 0.08 µM) was 0.717. For the same cell line, the relative viability (KN-93 + Alpelisib; first compound 0.253 µM) was 0.914, the relative viability (KN-93 + Alpelisib; first compound 2.53 µM) was 0.849 and the relative viability (KN-93 + Alpelisib; first compound 8 µM) was 0.546. For the same cell line, the relative viability (KN-93 + Linsitinib; first compound 0.08 µM) was 0.519, the relative viability (KN-93 + Linsitinib; first compound 0.253 µM) was 0.722 and the relative viability (KN-93 + Linsitinib; first compound 2.53 µM) was 0.746. It also gave a relative viability (KN-93 + Linsitinib; first compound 8 µM) of 0.476, a relative viability (KN-93 + Olaparib; first compound 0.08 µM) of 0.303 and a relative viability (KN-93 + Olaparib; first compound 0.253 µM) of 0.336. For the same cell line, the relative viability (KN-93 + Olaparib; first compound 2.53 µM) was 0.65, the relative viability (KN-93 + Olaparib; first compound 8 µM) was 0.0828 and the relative viability (KN-93 + Decitabine; first compound 0.253 µM) was 0.285. It also gave a relative viability (KN-93 + Decitabine; first compound 2.53 µM) of 0.313, a relative viability (KN-93 + Decitabine; first compound 8 µM) of 0.294 and a relative viability (KN-93; 0.08 µM) of 0.79. For the same cell line, the relative viability (KN-93; 0.253 µM) was 1.06, the relative viability (KN-93; 2.53 µM) was 1.26 and the relative viability (KN-93; 8 µM) was 0.553.

Calu-6 showed a relative viability (KN-93 + Crizotinib; first compound 0.08 µM) of 0.638, a relative viability (KN-93 + Crizotinib; first compound 0.253 µM) of 1.09 and a relative viability (KN-93 + Crizotinib; first compound 2.53 µM) of 0.786. The relative viability (KN-93 + Crizotinib; first compound 8 µM) was 0.41, the relative viability (KN-93 + Pictilisib; first compound 0.253 µM) was 1.06 and the relative viability (KN-93 + Pictilisib; first compound 2.53 µM) was 1.09. It also gave a relative viability (KN-93 + Pictilisib; first compound 8 µM) of 0.454, a relative viability (KN-93 + Lapatinib; first compound 0.08 µM) of 0.932 and a relative viability (KN-93 + Lapatinib; first compound 0.253 µM) of 1.25. It also gave a relative viability (KN-93 + Lapatinib; first compound 2.53 µM) of 1.37, a relative viability (KN-93 + Lapatinib; first compound 8 µM) of 0.567 and a relative viability (KN-93 + Bortezomib; first compound 0.08 µM) of 1.1. It also gave a relative viability (KN-93 + Bortezomib; first compound 0.253 µM) of 1.05, a relative viability (KN-93 + Bortezomib; first compound 2.53 µM) of 1.13 and a relative viability (KN-93 + Bortezomib; first compound 8 µM) of 0.633. For the same cell line, the relative viability (KN-93 + Navitoclax; first compound 0.08 µM) was 0.805, the relative viability (KN-93 + Navitoclax; first compound 0.253 µM) was 0.894 and the relative viability (KN-93 + Navitoclax; first compound 2.53 µM) was 0.951. For the same cell line, the relative viability (KN-93 + Navitoclax; first compound 8 µM) was 0.36, the relative viability (KN-93 + Foretinib; first compound 0.08 µM) was 0.861 and the relative viability (KN-93 + Foretinib; first compound 0.253 µM) was 0.997. For the same cell line, the relative viability (KN-93 + Foretinib; first compound 2.53 µM) was 0.882, the relative viability (KN-93 + Foretinib; first compound 8 µM) was 0.622 and the relative viability (KN-93 + Alpelisib; first compound 0.08 µM) was 1.09. The relative viability (KN-93 + Alpelisib; first compound 0.253 µM) was 1.12, the relative viability (KN-93 + Alpelisib; first compound 2.53 µM) was 0.981 and the relative viability (KN-93 + Alpelisib; first compound 8 µM) was 0.644. It also gave a relative viability (KN-93 + Linsitinib; first compound 0.08 µM) of 0.784, a relative viability (KN-93 + Linsitinib; first compound 0.253 µM) of 1 and a relative viability (KN-93 + Linsitinib; first compound 2.53 µM) of 1.16. The relative viability (KN-93 + Linsitinib; first compound 8 µM) was 0.904, the relative viability (KN-93 + Olaparib; first compound 0.08 µM) was 0.503 and the relative viability (KN-93 + Olaparib; first compound 0.253 µM) was 0.546. The relative viability (KN-93 + Olaparib; first compound 2.53 µM) was 0.699, the relative viability (KN-93 + Olaparib; first compound 8 µM) was 0.429 and the relative viability (KN-93; 0.08 µM) was 0.872. The relative viability (KN-93; 0.253 µM) was 1.09, the relative viability (KN-93; 2.53 µM) was 1.16 and the relative viability (KN-93; 8 µM) was 0.69.

In the case of EBC-1, the relative viability (KN-93 + Crizotinib; first compound 2.53 µM) is reported as 0.216, the relative viability (KN-93 + Crizotinib; first compound 8 µM) is reported as 0.192 and the relative viability (KN-93 + Pictilisib; first compound 0.253 µM) is reported as 0.317. The relative viability (KN-93 + Pictilisib; first compound 2.53 µM) was 0.343, the relative viability (KN-93 + Pictilisib; first compound 8 µM) was 0.224 and the relative viability (KN-93 + Lapatinib; first compound 2.53 µM) was 0.183. For the same cell line, the relative viability (KN-93 + Lapatinib; first compound 8 µM) was 0.233, the relative viability (KN-93 + Bortezomib; first compound 0.08 µM) was 0.577 and the relative viability (KN-93 + Bortezomib; first compound 0.253 µM) was 0.492. For the same cell line, the relative viability (KN-93 + Bortezomib; first compound 2.53 µM) was 0.426, the relative viability (KN-93 + Bortezomib; first compound 8 µM) was 0.243 and the relative viability (KN-93 + Navitoclax; first compound 0.08 µM) was 0.375. For the same cell line, the relative viability (KN-93 + Navitoclax; first compound 0.253 µM) was 0.337, the relative viability (KN-93 + Navitoclax; first compound 2.53 µM) was 0.274 and the relative viability (KN-93 + Navitoclax; first compound 8 µM) was 0.178. It also gave a relative viability (KN-93 + Foretinib; first compound 0.253 µM) of 0.0885, a relative viability (KN-93 + Foretinib; first compound 2.53 µM) of 0.12 and a relative viability (KN-93 + Foretinib; first compound 8 µM) of 0.124. For the same cell line, the relative viability (KN-93 + Alpelisib; first compound 0.08 µM) was 0.821, the relative viability (KN-93 + Alpelisib; first compound 0.253 µM) was 0.889 and the relative viability (KN-93 + Alpelisib; first compound 2.53 µM) was 0.599. It also gave a relative viability (KN-93 + Alpelisib; first compound 8 µM) of 0.497, a relative viability (KN-93 + Linsitinib; first compound 0.08 µM) of 0.905 and a relative viability (KN-93 + Linsitinib; first compound 0.253 µM) of 0.907. The relative viability (KN-93 + Linsitinib; first compound 2.53 µM) was 1.07, the relative viability (KN-93 + Linsitinib; first compound 8 µM) was 0.869 and the relative viability (KN-93 + Olaparib; first compound 0.08 µM) was 0.652. It also gave a relative viability (KN-93 + Olaparib; first compound 0.253 µM) of 0.69, a relative viability (KN-93 + Olaparib; first compound 2.53 µM) of 0.652 and a relative viability (KN-93 + Olaparib; first compound 8 µM) of 0.52. For the same cell line, the relative viability (KN-93; 0.253 µM) was 1.03, the relative viability (KN-93; 2.53 µM) was 1.01 and the relative viability (KN-93; 8 µM) was 0.693.
